Read-outs that look alike come from different tables or passages of the source.
Tests used:
[1] = Pharmacokinetic studies in rats (single i.v. and p.o. dose); assay type: in vivo; settings: plasma
[2] = Metabolic stability in human liver S9 fraction; assay type: in vitro ADME; settings: for t1/2 / half-life at 1 µM: 1 μM
Description: (§1) The metabolic stability of SP-8356 was investigated using rat, dog and human liver S9 fractions fortified with cofactors for major drug metabolism. The final reaction mixture contained 1 mg/mL rat, dog or human liver S9 fraction, 1 mM cofactors (NADPH, UDPGA, PAPS, SAM and GSH), 2 mM MgCl2, 25 µg/mL alamethicin and 1 µM SP-8356 in final volume of 200 µL. The metabolic reactions were initiated by adding 10 mM cofactor solution to reaction mixtures preincubated for 5 min at 37 °C. The reactions were terminated at (0, 5, 15, 30 and 60) min by the addition of 200 µL ice-cold acetonitrile containing HSDH (1 µg/mL). The subsequent sample preparation and analytical methods were the same as those described in Section 4.5.
(§2) The degradation t1/2 of SP-8356 was calculated using the following Equation:(1) t1/2=0.693/k, where, k was the first-order rate constant calculated by one phase decay nonlinear regression using GraphPad Prism™ 7 (GraphPad Software, La Jolla, CA, USA). CLint was calculated using the following Equation:(2) CLint=k/fu,S9· mL incubation/mg liver S9· mg S9/g liver·g liver/kg body wt.
(§3) The scaling factors were (136, 120.7 and 120.7) mg S9 protein/g liver and (40, 32 and 26) g liver/kg body weight for rats, dogs and humans, respectively. For simplicity, the fraction unbound in S9 incubation (fu, S9) was assumed to be one. CLH was predicted using the hepatic well-stirred model, as follows:(3) CLH=QH·fu·CLint/QH+fu·CLint, where, QH was the hepatic blood flow of (55, 30 and 20) mL/min/kg for rats, dogs and humans, respectively. The fraction unbound (fu) was assumed to be one. EH was calculated using the following Equation:(4) EH=CLH/QH.

[3] = In vivo metabolite identification, pooled rat urine; settings: rat pooled urine 0–24 h, single i.v. dose of SP-8356
Description: Rat urine samples were collected from the animal studies approved by the IACUC of Korea University (Approval No.: KUIACUC-2017-124; Approval date: Jul. 29, 2017). SP-8356 dissolved in DMA/Cremophor EL/saline (5/10/85 vol.%) was dosed i.v. at 10 mg/kg (n = 5/dose group) to male SD rats (8 weeks old; (255–275) g; Koatech Inc., Gyeonggi, Republic of Korea) housed individually in metabolic cages. Urine samples were collected for ((0–4), (4–8) and (8–24)) h. Pooled urine samples were mixed with equal volume of acetonitrile containing HSDH (1 μg/mL) as IS, followed by filtration with a syringeless filter device (Mini-UniPrep™, PTFE filter media with polypropylene housing, 0.45 µm). The filtrate was analyzed by Agilent 6530 Q-TOF LC-MS/MS system equipped with dual AJS ESI ion source and Agilent 1200 series HPLC system, as follows.
Chromatographic separation was achieved on an Agilent Eclipse C18 column (2.1 mm × 100 mm, 3.5 µm) by a gradient elution with a mobile phase consisting of 0.1 vol.% formic acid in water (A) and 0.1 vol.% formic acid in acetonitrile (B) at 50 °C: starting with 5 vol.% B for 2 min, ramping to 95 vol.% B over 1 min, maintaining for 3 min. The mobile phase flow rate was kept at 0.45 mL/min throughout the run. The sample injection volume was 5 µL. […]

[4] = Metabolic stability in rat liver S9 fraction; assay type: in vitro ADME
Description: as §1, §2, §3

Vd ([1]; male, SD (rat), Beagle (dog), iv, range over rats and dogs, read-out: mean volumes of distribution during terminal phase (Vz) and at steady state (Vss)): 1.3 to 1.9 L/kg
AUC(0-inf) ([1]; male, SD, iv, rat, 20 mg/kg): 1030 ± 314 ng·h/mL
AUC(0-t) ([1]; male, SD, iv, rat, 20 mg/kg): 981 ± 314 ng·h/mL
clearance ([1]; male, SD, iv, rat, 20 mg/kg): 350 mL/min/kg
half-life ([1]; male, SD, rat, iv, 20 mg/kg): < 6 min
Vd ([1]; male, SD, rat, iv, 20 mg/kg, read-out: Vss): 1.6 ± 0.5 L/kg
Vd ([1]; male, SD, rat, iv, 20 mg/kg, read-out: Vz): 1.9 ± 0.6 L/kg
t1/2 ([1]; rat, 20 mg/kg): 4.2 ± 1.2 min
t1/2 ([2]; human liver S9, +Cofactors (NADPH, UDPGA, PAPS, SAM, GSH)): 2.1 min
t1/2 ([2]; human liver S9, −Cofactors): 24.1 min
CLH ([2]; human, +Cofactors, predicted by well-stirred model): 19.6 mL/min/kg
half-life at 1 µM ([2]; human, liver S9 fraction, human liver S9, +Cofactors (NADPH, UDPGA, PAPS, SAM, GSH)): < 3 min
half-life at 1 µM ([2]; human, liver S9 fraction, human liver S9, −Cofactors): < 30 min
CLint scaled at 1 µM ([2]; liver S9 fraction, human liver S9, +Cofactors): 1040 mL/min/kg
relative peak size (AR) in urine, in total [3]: almost insignificant
CLint scaled at 1 µM ([4]; Sprague-Dawley, liver S9 fraction, rat liver S9, +Cofactors): 2900 mL/min/kg
EH ([4]; rat, +Cofactors, EH = CLH/QH): 0.98
CLH ([4]; rat, +Cofactors, predicted by well-stirred model): 54.0 mL/min/kg
Structure (SMILES): COc1cc(/C=C/C2=CC(=O)[C@H]3C[C@@H]2C3(C)C)cc(O)c1O [SP-8356, (1S,5R)-4-((E)-3,4-dihydroxy-5-methoxystryryl)-6,6-dimethylbicylco[3.1.1]hept-3-en-2-one]

Reference: PMC7221793, “Metabolism and Pharmacokinetics of SP-8356, a Novel (1S)-(−)-Verbenone Derivative, in Rats and Dogs and Its Implications in Humans” (Molecules, 2020)
